Results as given in US20110123623A1, “RHAMNOLIPID MECHANISM” (priority 2009, published 2011).
Read-outs that look alike come from different tables or passages of the source.

What was measured:
BALB/c male mice = assay: Immunostimulation (humoral); type: in vivo, mouse
Excerpt: (§1) Immunostimulation (humoral) in BALB/c male mice and Immunosuppression (humoral)^(2,7) on ICR male mice were negative.

ICR male mice = assay: Immunosuppression (humoral); type: in vivo, mouse
Excerpt: as §1

[1] = tested on: neonatal human keratinocytes; assay: Neonatal human keratinocyte cell culture (proliferation, viability, apoptosis); type: cell-based
Protocol: On the contrary, Di-rhamnolipid W3CTS in the presence of serum and at high concentration of calcium increased the proliferation and the viability of keratinocytes and decreased the caspase activity. At the concentration of 50 μg/ml, Di-rhamnolipid W3CTS maximally stimulated the proliferation (34%) and the viability of keratinocytes (25%) as compared to control, and decreased the apoptosis (49%).

[2] = tested on: female Swiss-Webster mice; type: in vivo; settings: for MORTAL. / SIGNIFICANT FINDINGS: 7 days
Protocol: Multi-dose toxicity study of Di-rhamnolipid W3CTS administered subcutaneously in female Swiss-Webster mice for 7 days recovery period. The effects of 7 daily subcutaneous injections of the 99.3% pure Di-rhamnolipid W3CTS, followed by 7-day recovery period, were determined in female Swiss-Webster mice. Five groups (3 mice per group) were administered W3CTS doses at 0.012; 1, 2; 60 and 120 mg/kg/day and vehicle. All animals were observed and weighed throughout the study for clinical signs of toxicity including skin injection sites. On study Day 13 (seven days after last injection, 6 days for group 5) all animals were euthanized. The thymus, liver, kidneys, spleen, heart and lungs were weighed and preserved.
No mortality occurred at any dose level. […] Abnormal clinical observations at some animals at groups (60 and 120 mg/kg) were limited to skin lesions at the injection sites. All skin lesions were healing at termination.
At necropsy, two animals from group 120 mg/kg had moderate enlargement of the spleen and liver and adhesions between liver, spleen, kidneys and peritoneum were seen also in one animal (See Table 1).
Histopathology of spleen, thymus, and liver and selected skin site lesions was performed on tissues from high dose group animals and one control. […] Histopathologic features of skin lesions included evidence of chronic active inflammation, co-existing with progressing ulceration and/or healing.

[3] = tested on: neonatal human keratinocytes; assay: Colony forming efficiency of neonatal human keratinocytes; type: cell-based; settings: GM medium with 10% fetal bovine serum
Protocol: Colony forming efficiency of neonatal human keratinocytes treated with Di-rhamnolipid W3CTS.
The stimulation was most significant at 100 μg/ml and 50 μg/ml the colony forming ability was increased by 34% at 50 μg/ml of Di-rhamnolipid W3CTS. The results are consistent with the effects of Di-rhamnolipid W3CTS on the neonatal human keratinocyte viability in GM with 10% fetal bovine serum.

[4] = tested on: normal Sprague-Dawley rats; assay: Full-thickness burn wounds, topical treatment; type: in vivo, rat
Protocol: The effects of Di-rhamnolipid W3CTS on full-thickness burn wounds in normal Sprague-Dawley rats.
Di-rhamnolipid W3CTS was prepared in a eucerine ointment applied topically on full-thickness burn wounds in normal Sprague-Dawley rats covering 5% of the whole skin area. The rate of wound closure was measured over the period of 45 days. The collagen content was evaluated microscopically, by performing densitometric analysis on Verhoeff's stained histopathological slides of wound biopsies taken at the end of 45th day of di-rhamnolipid treatment. The treatment of full thickness-burn wounds covering 5% of the whole body skin area with topical applications (2 per day) of 0.1% di-rhamnolipid in eucerine ointment accelerated the closure of wounds on day 21 of the treatment by 32% compared to the control (p<0.05). […] The results of this study raise the possibility of potential efficacy of di-rhamnolipid in accelerating normal wound healing and perhaps in overcoming defects associated with healing failure in chronic wounds.

C. albicans = assay: Immunorestoration activity: cyclophosphamide immunosuppression and C. albicans challenge; type: in vivo, mouse; settings: 100 mg/kg i/p days 1, 3, 5, cyclophosphamide 30 mg/kg p/o days 2, 4, 6
Protocol: Di-rhamnolipid W3CTS was administered i/p. (100 mg/kg) to groups of ICR derived male mice weighing 22±2 g on days 1, 3, and 5, with the immunosuppressant cyclophosphamide (30 mg/kg p/o.) administered on days 2, 4, and 6. One day after the last immunosuppressant dose, the mice were challenged with a suspension of C. Albicans sufficient to result in 90-100% mortality within 10 days in vehicle treated animals. Survival of 30 percent or more (≧30) of the animals was considered significant and indicated possible immunorestoration activity. Reference agent was lipopolysaccharide 0.3 mg/kg i/p.

female ICR mice = assay: Immunosuppression (cellular): oxazolone-induced delayed type hypersensitivity; type: in vivo, mouse; settings: oxazolone-induced DTH
Excerpt: Immunosuppression (cellular): Oxazolone-induced delayed type hypersensitivity of female ICR mice was negative.

[5] = Neonatal human fibroblast cell culture (proliferation, viability, apoptosis); type: cell-based; settings: human, neonatal human fibroblasts; 100 μg/ml; presence of serum; read-out: inhibition of viability of fibroblasts
Protocol: (§2) At the same concentration of 100 μg/ml W3CTS increased apoptosis by 72%.

[6] = tested on: neonatal human fibroblasts; assay: as above; type: cell-based
Protocol: as §2

[7] = 200 μg/ml and 500 μg/ml, causing necrosis

## CCCCCCCC(CC(=O)O)OC(=O)CC(CCCCCCC)OC1OC(C)C(O)C(O)C1OC1OC(C)C(O)C(O)C1O (stereo not drawn) [Di-rhamnolipid W3CTS]
BALB/c male mice
  Immunostimulation (humoral): negative
ICR male mice
  Immunosuppression (humoral): negative
[1]; 50 μg/ml, serum, high calcium
  decrease of apoptosis of keratinocytes: 49%
  stimulation of proliferation of keratinocytes vs control: 34%
  stimulation of viability of keratinocytes vs control: 25%
[1]; [7]
  cell proliferation and viability, keratinocytes: fully inhibited cell proliferation and viability
[1]; without serum, low calcium, 100 μg/ml, caused necrosis
  proliferation and viability of keratinocytes: fully inhibited proliferation and viability
[2]; 0.012 mg/kg/day s.c.
  MORTAL.: 0/3
  SIGNIFICANT FINDINGS: None
[2]; 1.20 mg/kg/day s.c.
  MORTAL.: 0/3
  SIGNIFICANT FINDINGS: None
[2]; 60 mg/kg/day s.c.
  MORTAL.: 0/3
[2]; 120 mg/kg/day s.c.
  Histopathology: extramedullary hematopoiesis (mice): mouse, extramedullary hematopoiesis in 2
  Histopathology: thymic involution (mice): Histopathology: thymic involution in 1
  Necroscopy findings: adhesions between the liver and the spleen, kidneys and peritoneum (mice): spleen, kidneys and peritoneum (1/3
  MORTAL.: 0/3
[3]; 50 μg/ml
  colony forming ability increase: 34%
[3]; 100, 50, 10 and 1 μg/ml
  growth of keratinocyte colonies: stimulated the growth of keratinocyte colonies
[4]; 0, 1% in eucerine, biopsies at end of 45th day, p<0.05
  decrease of collagen content in burn wounds vs vehicle: 47.5%
[4]; 0.1% in eucerine ointment, 2 per day topical, day 21, p<0.05
  acceleration of closure of wounds vs control: 32%
[4]; 0.1% ointment, day 35
  wound closure: wounds closed in all animals
C. albicans
  immunorestoration activity (survival of 30 percent or more considered significant): possible very significant immunorestoration activity
Female ICR mice
  Immunosuppression (cellular): negative
[5]
  cytotoxicity at 100 μg/ml: 28%
[6]; 100 μg/ml, presence of serum
  increase of apoptosis of fibroblasts: 72%
[6]; [7]
  cell proliferation and viability, fibroblasts: fully inhibited cell proliferation and viability
[6]; Homo sapiens, Fibroblast, 100 μg/ml, presence of serum
  inhibition at 100 µg/mL: 46%
